Results as given in a melting point compilation (Tetko et al.; mined from patent text by program, amines drawn as free bases though some values may be those of a salt).

SMILES	melting point
CCCc1nc(C)n2nc(S(=O)(=O)Cl)nc2c1Cc1ccc(-c2ccccc2C#N)cc1	141 °C
COc1ccc(-c2cc3c(OC)c(Br)c(OC)cc3o2)cc1	107 to 109 °C
Cc1cnc(N2CCC(c3ccc(NS(C)(=O)=O)cc3)CC2)n1C	225 to 226 °C
OC1CSC(Oc2ccc(-c3ccco3)nc2)C(O)C1O (stereo unspecified)	146 °C
COc1ncc(-c2nn(C(C)c3oc4ccccc4c(=O)c3-c3cccc(F)c3)c3ncnc(N)c23)c(OC)n1 (stereo unspecified)	286 to 290 °C
CN(C)c1cccc(-c2ccc3c(C(N)=O)nn(-c4ccc(S(N)(=O)=O)cc4)c3c2)c1	237 to 238 °C
O=C(NCc1cccnc1)Nc1ccc([N+](=O)[O-])cc1	220 to 222 °C
OC1(CNCc2ccccc2)CCN(CCCc2c[nH]c3ccc(-n4cnnc4)cc23)CC1	> 60 °C
BrC(Br)=Cc1ccc(OCc2ccccc2)cc1	97 to 98 °C
COc1cc2c(cc1OC)CCN(C(=O)N(C)O)CC2	95 to 96 °C
CN1C(=O)[C@H](NC(=O)Nc2ccc(Cl)cc2Cl)N=C(c2ccccc2)c2ccccc21	215 to 216 °C
CCCCCCCCCCCCCCCCNc1cc(O)ccc1OCC	88 to 90 °C
O=C(C1=COCCOCCOCCOCCOCCO1)c1cccnc1	98 to 100 °C
CCCC(=O)Nc1nc2ccccc2n2c(CC)nnc12	185 to 187 °C
CCC(=O)N1CCC[C@H]1C(=O)O	98 to 99 °C
O=C(NC/C=C\COc1cc(CN2CCCCC2)ccn1)c1cc(-c2ccccc2)on1	105 to 106 °C
N#CC1=C(CN2C(=O)c3ccccc3C2=O)Nc2n[nH]cc2C1c1ccccc1Cl (stereo unspecified)	> 250 °C
CP1(=O)c2ccccc2CN1c1ccc(Cl)c(Cl)c1 (stereo unspecified)	152 to 154 °C
COc1cc(OC)nc(Oc2cccnc2CO)n1	115 °C
Cc1cc(C)c2ncc(NC(=O)c3cc(C(C)(C)C)c(O)c(C(C)(C)C)c3)c(-c3ccccc3Cl)c2c1	127 to 129 °C
CCCc1nc(N)nc(N2CCOCC2)n1	127 to 128 °C

SMILES	melting point
CCCCNC(=O)C(=O)NCCCCCO	136 to 137 °C
COc1ccc(NS(=O)(=O)c2ccc(N3CCC(NC[C@H](O)COc4ccc(O)cc4)CC3)cc2)cc1OC	101 to 106 °C
O=C1C(c2ccccc2)=C(c2ccccc2)C(=O)N1CCc1ccccc1F	111 to 112 °C
N#Cc1ccc(Cn2cncn2)c(-c2ccc(OS(N)(=O)=O)c(Cl)c2)c1	139 to 142 °C
O=C(C=CCN1CCOCC1)Nc1cc2c(Nc3ccc(F)c(Cl)c3)ncnc2cc1OC1CCCC1	143 °C
COC(=O)COc1cccc2c1S[C@@H](c1ccc(OC)cc1)[C@@H](O)C(=O)N2CCN(C)C (racemic)	152 to 160 °C
CCOC(=O)Nc1ccc(C2CCN(C(=O)OC(C)(C)C)CC2)cc1	126 to 128 °C
O=c1ccc2c(-c3ccc(O)cc3)nccc2[nH]1	> 300 °C
O=C1c2ccc(Cl)c3c(N4CCCC4)cc(Cl)c(c23)C(=O)N1O	243 to 245 °C
CSC(N)=C(C#N)C#N	228 to 229 °C
CC(C)(C)c1ccc(C2(CN)CC2)cc1	39 to 41 °C
COCCc1nc2c(N)nc3cc(OCc4ccccc4)ccc3c2n1CC(C)(C)O	185 to 186 °C
NS(=O)(=O)c1ccc(-n2nc(C(F)F)cc2-c2nc3cccc(F)c3s2)cc1	246 to 248 °C
C#CCN(C(C)C)C(C)CC1=C2c3ccc(OC)cc3CCC2CCNC1=O (stereo unspecified)	146 to 148 °C
Cc1nc(C)c(Cc2cccs2)c(NCc2ccc(-c3ccccc3-c3nnn[nH]3)cc2)n1	262 to 263 °C
CCN(CC)Cc1nnc2n1-c1ccc(Cl)cc1C(c1ccccc1)=NC2	130 to 132 °C
CCc1cc(Oc2ncc(C(F)(F)F)cc2Cl)n[nH]1	55 to 57 °C
COc1ccc(-c2ccc(-n3nnnc3C(F)(F)F)cc2)cc1C=O	186 to 187 °C
CCCCCCCNC(=O)Nc1cc(N(C)C)ccc1C(=O)NC1CCN(C(c2ccccc2)c2ccccc2)CC1	87 °C
CC#CC(=O)N[C@H]1CC[C@H](CCN2CCN(c3nccc4c3OCC4)CC2)CC1	176 °C
CC(c1cccc(F)c1)n1ncc(-c2ccc(S(N)(=O)=O)cc2)c(-c2ccc(F)cc2)c1=O (stereo unspecified)	192 to 194 °C

SMILES	melting point
N#CC1=C(C#N)N=CCC=N1	189 to 190 °C
O=C/C=C/C1=C(c2ccc(F)cc2)C=C(c2ccc(F)cc2)CC12CCCC2	120 to 124 °C
CC(C)(C)C(CSC(F)F)=NO	92 to 95 °C
CCCN(CCC)S(=O)(=O)c1cc(-c2csc(=Nc3ccc(C)cc3C)n2C)ccc1Cl	139 to 141 °C
Cc1cc(-c2cnn3c(C(F)(F)F)cc(-c4ccc(OCC(F)(F)F)c(C(F)(F)F)c4)nc23)ccn1	210 °C
COC(=O)C1=C(C)N=C(OC)N(C(=O)Oc2ccc([N+](=O)[O-])cc2)C1c1ccc2nonc2c1 (stereo unspecified)	180 to 183 °C
Fc1cc(CC2(Cc3ccnc(F)c3)c3ccccc3-c3ncccc32)ccn1	137 to 140 °C
COc1nc(NC(=O)NS(=O)(=O)c2ccccc2Cl)nc2nccnc12	212 °C
CNC(=C[N+](=O)[O-])NCCSCc1cc(CN(C)C)ccn1	113 to 115 °C
CCOP(=O)(/C=C/c1cn(-c2ccccc2)nc1OCc1ccc(OCc2nc(-c3ccc(CC(=O)O)cc3)oc2C)c(OC)c1)OCC	119 to 120 °C
Cc1ccc(CNC(=O)c2ccc3n2Cc2ccccc2N(C(=O)COc2ccc(Cl)cc2)C3)cc1	174 to 176 °C
O=C(O)CCCCCCCCNC(=O)C1Cc2ccccc2N1S(=O)(=O)c1ccc(-c2cccc(C(F)(F)F)c2)cc1 (stereo unspecified)	60 °C
ClCCCN1c2ccccc2OCOc2ccc(Cl)cc21	105 to 108 °C
CC[C@@H](C)[C@H](N)C(O)(c1ccccc1)c1ccccc1	128 to 129 °C
COC(=O)c1cc(CCC2CNc3nc(NC(=O)C(C)(C)C)nc(O)c3C2)c[nH]1 (stereo unspecified)	236 to 238 °C
O=c1cnc(C(F)(F)F)cn1-c1c(Cl)cc(C(F)(F)F)cc1[N+](=O)[O-]	145 to 147 °C
O=C(C=Cc1cccc(Br)c1)c1cnc2sc3c(n12)CCCCC3	125 to 126 °C
CCOC(=O)c1[nH]c2cc3[nH]c(C)c(C(=O)OC)c3c(C)c2c1C	247 to 250 °C
CC(C)C[C@H](NC(=O)OCc1ccccc1)C(=O)N[C@@H](Cc1ccccc1)C(=O)CS	171 °C

Other lines, results leading:

melting point	SMILES
51 °C	CC1COc2c(ccc(F)c2F)N1 (stereo unspecified)
216 to 217 °C	O=C1Nc2ccc(Cl)cc2C2(c3ccccc3)OCCN12 (stereo unspecified)
75 °C	Cc1c(Cl)ccc(S(=O)(=O)Cl)c1Cl
215 to 217 °C	Cc1cc2oc(=O)c(NC(=O)Nc3ccc(F)cc3F)c(-c3ccccc3C)c2cc1C
175 °C	CN1Cc2c(F)ccc3scc(c23)S1(=O)=O
115 to 117 °C	CC(=O)c1cc(-c2ccncc2)sc1N1CCN(C)CC1
51 to 54 °C	CC(O)=C(C#N)C(=O)c1ccc(F)c(F)c1
203 to 208 °C	O=C(O)c1ccc(OCC2CC(=O)N(c3ccc(OC4CCCCC4O)cc3)C2)cc1 (stereo unspecified)
160 to 162 °C	CS(=O)(=O)c1ccc(-c2cc3c(cc2Cc2cc(F)cc(F)c2)OCCO3)cc1
118 °C	CCCC(CCC)C(=O)c1ccc(O)c(C(=O)O)c1
162 to 163 °C	Cc1ccc(C)c(NC(=O)CCc2ccc(O)c(N)c2)c1
92 to 93 °C	CCCCC1=CC(O)(C(Br)Br)N(Cc2ccccc2)C1=O (stereo unspecified)
153 to 154 °C	Cc1cccc(COc2cccc(OCc3ccc4cc(F)ccc4n3)c2)c1C(=O)O
104 to 109 °C	COc1ccc(Cl)cc1C(=O)NCCc1ccc(Br)cc1
260 °C	O=CC1=C(Cl)Nc2cc(F)c(F)cc2C1
252 to 253 °C	COC(=O)c1c(C(=O)OC)c2n(c1C)Cc1[nH]c3ccccc3c1C2
115 to 118 °C	Cc1ccc(C(C)C)c(OCCN(C)Cc2c(C)c(O)c(C)c(C)c2OCCO)c1
152 to 154 °C	CC(C)Cn1c(CNC(=O)OC(C)(C)C)c(-c2ccc(Cl)cc2)c2cc(/C=C/C(N)=O)ccc2c1=O
201 to 203 °C	CN(C)CCNc1nc(C(=O)Nc2nc3ccc(C#N)cc3s2)cs1
104 to 107 °C	Cc1ccc([N+](=O)[O-])c2c1CCCC2=O

melting point	SMILES
176 to 178 °C	O=C(O)c1cc(S(=O)C(F)(F)F)c(Cl)cc1Cl (stereo unspecified)
> 350 °C	COC(=O)c1cc2cc(NC(=O)c3cc4cc(N)ccc4[nH]3)ccc2[nH]1
197 °C	O=C(c1ccc(Cl)cc1)c1c(Cl)cc2n1CCC2C(=O)O (stereo unspecified)
130 to 131 °C	COC(=C(C#N)C(=O)C(C)(C)C)c1ccc(Cl)cc1[N+](=O)[O-]
162 to 165 °C	CC1(C)CNC(=O)C(=O)N1c1cc(F)cc2ccoc12
88 to 90 °C	Cc1ccc(C(=O)C2(n3ccnc3)CC2)cc1
100 to 102 °C	Cc1ccc(C(Cl)=NOS(C)(=O)=O)cc1
109 to 111 °C	COc1ccc(CCNC(=O)CCCCC(=O)NCCNc2ccccc2)cc1OC
258 to 259 °C	CC1OC(=O)N2c3ccc(O)cc3CCC12 (stereo unspecified)
163 to 164 °C	NS(=O)(=O)c1ccc2c(c1)CCO2
223 °C	Oc1ccc2nccc(Cl)c2c1
154 to 156 °C	CC(C)C(=O)N[C@@H](CSC(=O)c1ccccc1)C(=O)NCCSC(=O)c1ccccc1
124 to 125 °C	CC1(C)CCC(C)(C)c2cc(N(CCCCO)C(=O)Nc3cccc(C(=O)O)c3)ccc21
95 to 97 °C	CC(C)=CCN1C(=O)c2ccccc2C1=O
231 to 233 °C	O=C(O)Cn1nc(-c2ccccc2O)nc1-c1ccccc1O
66 to 68 °C	Cc1ccc([N+](=O)[O-])c(C=O)c1C
66 to 72 °C	COCCN(C)C(=O)Nc1c(C(=O)c2ccccc2)[nH]c2cc(Cl)ccc12
49.5 to 50 °C	CCCCCCCCCCCCOC(C)c1ccc(C(=O)O)cc1 (single isomer, unassigned; (+))
157 °C	COc1cc(OC)cc(C2(Cl)C(=O)Nc3ccc(Cl)cc32)c1 (stereo unspecified)
92 °C	CCCCNC(=O)N(c1ccccc1)c1ccccc1
